Experimental data taken from patent US12338261B2 (SUMITOMO PHARMA ONCOLOGY, INC., priority 2015, dated 2025).
“And” between values parts separate entries of the source, which are not always exact repeats. Equal entries are not always repeated. Where two headings read alike, the source gives them in different places.

Key:
[1] = Pharmacokinetics in Sprague Dawley rats; format: in vivo, rat; settings: SD rats; for concentration at 0.5 h: 0.50 hr
Procedure: Plasma samples were taken at 8 time-points (IV) or 7 time points (oral) over a 24 hour period following a single dose of compound IB′ (3 animals per group). […] The plasma samples were also analyzed for the presence of compound IB′.

MCL-1 protein expression = test: Mouse xenograft pharmacodynamic study; format: in vivo; settings: MV4-11 xenograft tumors, 48 hours post-treatment
Procedure: The in vivo pharmacodynamic activity of compound IB′ was determined in a MV4-11 mouse xenograft model of AML (FIG. 6A-B). Injection of 8×10^6 cells/mouse was followed by growth of tumors to approximately 100 mm^3. After tumors reached an appropriate size, mice were randomized into the following treatment groups: Vehicle, compound IB′ (2.5 mg/kg), compound IB′ (0.5 mg/kg), compound IB′ (0.1 mg/kg), compound IB′ (0.02 mg/kg). Mice were administered a single treatment dose and tumors were harvested 48 hours post-treatment. MCL-1 protein levels were assessed on harvested tumors using standard polyacrylamide gel electrophoresis and immunoblotting technique (FIG. 6A).

[2] = CD-1, mouse, in vivo
physchem = settings: kinetic from dmso stock
Human plasma stability = format: in vitro ADME; settings: human plasma
Procedure: The plasma stability of compound IB′ was determined using plasma from four species.

[3] = format: in vitro ADME, mouse; settings: mouse, plasma
Procedure: (§1) The plasma stability of compound IB′ was determined using plasma from four species. Results for mouse, rat, dog and human are shown in Tables 5, 6, 7 and 8 respectively. Alvocidib and flumazenil were used as controls. In mouse, rat and human plasma, compound IB′ maintained 100% stability after 5 hour incubation. In dog plasma, approximately 90% of compound IB′ remained after 5 hours.

[4] = format: in vitro ADME, rat; settings: rat, plasma
Procedure: as §1

[5] = Procedure: Repeat dose toxicology studies were performed in female SHO SCID mice using 3 animals per treatment group. […] Body weight measurements of animals treated by oral (see FIGS. 3A-B) and intravenous (see FIG. 3C-D) dosing over the course of the 5-day repeat dosing period and subsequent 5-day observation period, along with mortality and clinical observations, were used to determine the maximum tolerated dosing schedule (MTDrepeat).
[6] = tested on: MV4-11 mouse xenograft model of acute myeloid leukemia (AML); test: Mouse xenograft efficacy study; format: in vivo; settings: MV4-11 xenograft
Procedure: The in vivo activity of compound IB′ was determined in a MV4-11 mouse xenograft model of acute myeloid leukemia (AML). Injection of 8×10^6 MV4-11 cells/mouse was followed by growth of tumors to approximately 100 mm^3. After tumors reached the appropriate size, mice were randomized into the following treatment groups: Vehicle, compound IB′ (7.5 mg/kg, qdx5x3), compound IB′ (2.5 mg/kg, qdx5x3), compound IB′ (0.1 mg/kg, qdx5x3) and […]. Vehicle and compound IB′ were administered orally, except in the last arm of compound IB′ (7.5 mg/kg, q7dx3), which was dosed intravenously.

[7] = for MTDacute: female SHO SCID mice; for Body weight loss, peak: surviving mice
Procedure: Acute studies were performed in female SHO SCID mice using three animals per treatment group. […] Body weight measurements following oral dosing (FIGS. 2A-B) and intravenous (IV) dosing (FIG. 2C-D) were used, along with mortality and clinical observations to determine the maximum tolerated acute dose (MTDacute).

Dog plasma stability = format: in vitro ADME; settings: dog plasma
Procedure: as §1

[8] = male, Sprague Dawley, rat, plasma, IV 1 mg/kg, read-out: Plasma concentration of compound IB′ itself
[9] = male, Sprague Dawley, rat, plasma, PO 10 mg/kg, read-out: Plasma concentration of compound IB′ itself

## CN1CC[C@H](c2c(OP(=O)(O)O)cc(O)c3c(=O)cc(-c4ccccc4Cl)oc23)[C@H](O)C1 [Compound IB′, 2-(2-chlorophenyl)-5-hydroxy-8-(3-hydroxy-1-methylpiperidin-4-yl)-4-oxo-4H-chromen-7-yl dihydrogen phosphate]
[1]; IV 1 mg/kg, 2.00 hr, 1 mg/kg
  Plasma concentration of compound IB′ itself: below quantitative levels and BQL
[1]; IV 1 mg/kg, 4.00 hr
  Plasma concentration of compound IB′ itself: BQL
[1]; IV 1 mg/kg, 6.00 hr
  Plasma concentration of compound IB′ itself: BQL
[1]; IV 1 mg/kg, 8.00 hr
  Plasma concentration of compound IB′ itself: BQL
[1]; IV 1 mg/kg, 24.00 hr
  Plasma concentration of compound IB′ itself: BQL
[1]; PO 10 mg/kg, 2.00 hr, 10 mg/kg
  Plasma concentration of compound IB′ itself: below quantitative levels and BQL
[1]; PO 10 mg/kg, 4.00 hr
  Plasma concentration of compound IB′ itself: BQL
[1]; PO 10 mg/kg, 6.00 hr
  Plasma concentration of compound IB′ itself: BQL
[1]; PO 10 mg/kg, 8.00 hr
  Plasma concentration of compound IB′ itself: BQL
[1]; PO 10 mg/kg, 24.00 hr
  Plasma concentration of compound IB′ itself: BQL
[1]; male, Sprague Dawley, rat, plasma, IV 1 mg/kg, 0.083 hr, read-out: Plasma concentration of compound IB′ itself
  concentration at 0.083 h: 430 ng/mL
[1]; [8]
  concentration at 0.25 h: 82 ng/mL
  concentration at 0.5 h: 24.6 ng/mL
  concentration at 1 h: 9.3 ng/mL
[1]; [9]
  concentration at 0.25 h: 30 ng/mL
  concentration at 0.5 h: 20.4 ng/mL
  concentration at 1 h: 9.3 ng/mL
MCL-1 protein expression; single dose 0.02 mg/kg
  Reduction of MCL-1 Expression: 0.0%
MCL-1 protein expression; single dose 0.1 mg/kg
  Reduction of MCL-1 Expression: 46%
MCL-1 protein expression; single dose 0.5 mg/kg
  Reduction of MCL-1 Expression: 61%
MCL-1 protein expression; single dose 2.5 mg/kg
  Reduction of MCL-1 Expression: 54%
[2]
  Bioavail.: 182.3 ± 20.0 % F
physchem; pH 2.2, aqueous buffer
  solubility kinetic: > 1000 µg/mL
physchem; pH 2.2, aqueous buffer, Solubility
  solubility: 1900 µg/mL
physchem; pH 6.8, aqueous buffer
  solubility kinetic: > 5000 µg/mL
physchem; pH 8.7, aqueous buffer
  solubility kinetic: > 5000 µg/mL
Human plasma stability; 0 hours
  % Remaining: 100.00%
Human plasma stability; 0.5 hours
  % Remaining: 96.32%
Human plasma stability; 1 hour
  % Remaining: 88.01%
Human plasma stability; 2 hours
  % Remaining: 104.22%
Human plasma stability; 3 hours
  % Remaining: 102.59%
Human plasma stability; 4 hours
  % Remaining: 94.36%
Human plasma stability; 5 hours
  % Remaining: 100% and 100.26%
[3]; 0 h
  % Remaining: 100.00%
[3]; 0.5 h
  % Remaining: 88.48%
[3]; 1 h
  % Remaining: 89.83%
[3]; 2 h
  % Remaining: 97.71%
[3]; 3 h
  % Remaining: 99.61%
[3]; 4 h
  % Remaining: 100.46%
[4]; 0 h
  % Remaining: 100.00%
[4]; 0.5 h
  % Remaining: 97.39%
[4]; 1 h
  % Remaining: 94.60%
[4]; 2 h
  % Remaining: 100.04%
[4]; 3 h
  % Remaining: 107.48%
[4]; 4 h
  % Remaining: 100.20%
[5]; female SHO SCID mice, five daily doses, dosed intravenously
  MTDrepeat: 15 mg/kg
[5]; mice, five daily doses, orally 7.5 or 2.5 mg/kg, or any dose level intravenously
  overt toxicity: No overt toxicity was observed
[5]; mice, five daily oral doses 15 mg/kg
  mortality: one animal died on day 5, and one animal died on day 7
[5]; surviving mice, five daily oral doses 15 mg/kg
  Body weight loss, peak: 12%
[6]; 2.5 mg/kg, qdx5x3, orally
  Tumor Growth Inhibition: 12%
[6]; 7.5 mg/kg, q7dx3, intravenously
  Tumor Growth Inhibition: 74%
[6]; 7.5 mg/kg, qdx5x3, orally
  Tumor Growth Inhibition: 69%
[7]; single dose, dosed intravenously
  MTDacute: 15 mg/kg
[7]; single dose, dosed orally
  MTDacute: 15 mg/kg
[7]; mice, 15 mg/kg intravenous dosing group, single dose
  Minor body weight loss, peak: 3.3%
[7]; mice, single dose 30 mg/kg and 45 mg/kg
  clinical observations: Body weight loss and increased lethargy were observed
[7]; mice, single dose orally or intravenously at 15 mg/kg or 7.5 mg/kg
  overt toxicity: No overt toxicity was observed
[7]; mice, single intravenous dose 30 mg/kg
  mortality: one animal died on day three
[7]; mice, single intravenous dose 45 mg/kg
  mortality: two animals died on day two
[7]; mice, single oral dose 30 mg/kg
  mortality: one animal died on day four
[7]; mice, single oral dose 45 mg/kg
  mortality: one animal died on day two and one animal died on day three
[7]; single dose intravenously
  Body weight loss, peak: 12%
[7]; single oral dose, 30 mg/kg group
  Body weight loss, peak: 17%
Dog plasma stability; 0 hours
  % Remaining: 100.00%
Dog plasma stability; 0.5 hours
  % Remaining: 83.66%
Dog plasma stability; 1 hour
  % Remaining: 94.53%
Dog plasma stability; 2 hours
  % Remaining: 112.61%
Dog plasma stability; 3 hours
  % Remaining: 99.16%
Dog plasma stability; 4 hours
  % Remaining: 93.91%
